Data published in article PMC3437627 (Bioorganic & medicinal chemistry letters, 2008).

What was measured:
α7* nAChRs [1] = biological target: T1, α7* nAChRs (Rattus norvegicus, UniProt Q05941); assay: [3H]methyllycaconitine; format: binding; settings: 100 nM
α4β2* nAChRs = α4β2* nAChRs (Rattus norvegicus, UniProt P09483+P12390); settings: rat brain membranes; cited from earlier work
[2] = test system: nicotine self-administration; settings: rats; cited from earlier work
[3] = in vivo; cited from earlier work
α7* nAChRs [4] = biological target: T1, α7* nAChRs; settings: rat brain membranes; cited from earlier work

T1 sequence (Q05941 23-502): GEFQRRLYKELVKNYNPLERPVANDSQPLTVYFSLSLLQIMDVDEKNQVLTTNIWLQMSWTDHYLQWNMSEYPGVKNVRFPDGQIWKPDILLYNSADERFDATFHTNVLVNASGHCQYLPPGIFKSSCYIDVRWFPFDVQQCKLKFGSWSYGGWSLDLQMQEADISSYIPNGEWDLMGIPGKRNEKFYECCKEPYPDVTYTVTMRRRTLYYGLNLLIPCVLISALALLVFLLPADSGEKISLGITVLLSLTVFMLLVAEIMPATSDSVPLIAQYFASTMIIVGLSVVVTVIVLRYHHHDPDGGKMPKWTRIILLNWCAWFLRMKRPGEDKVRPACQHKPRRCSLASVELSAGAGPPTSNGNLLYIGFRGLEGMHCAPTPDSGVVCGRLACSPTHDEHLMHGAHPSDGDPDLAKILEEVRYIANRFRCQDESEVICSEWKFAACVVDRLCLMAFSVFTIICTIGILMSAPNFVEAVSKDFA
Chain of α4β2* nAChRs (P09483 31-630): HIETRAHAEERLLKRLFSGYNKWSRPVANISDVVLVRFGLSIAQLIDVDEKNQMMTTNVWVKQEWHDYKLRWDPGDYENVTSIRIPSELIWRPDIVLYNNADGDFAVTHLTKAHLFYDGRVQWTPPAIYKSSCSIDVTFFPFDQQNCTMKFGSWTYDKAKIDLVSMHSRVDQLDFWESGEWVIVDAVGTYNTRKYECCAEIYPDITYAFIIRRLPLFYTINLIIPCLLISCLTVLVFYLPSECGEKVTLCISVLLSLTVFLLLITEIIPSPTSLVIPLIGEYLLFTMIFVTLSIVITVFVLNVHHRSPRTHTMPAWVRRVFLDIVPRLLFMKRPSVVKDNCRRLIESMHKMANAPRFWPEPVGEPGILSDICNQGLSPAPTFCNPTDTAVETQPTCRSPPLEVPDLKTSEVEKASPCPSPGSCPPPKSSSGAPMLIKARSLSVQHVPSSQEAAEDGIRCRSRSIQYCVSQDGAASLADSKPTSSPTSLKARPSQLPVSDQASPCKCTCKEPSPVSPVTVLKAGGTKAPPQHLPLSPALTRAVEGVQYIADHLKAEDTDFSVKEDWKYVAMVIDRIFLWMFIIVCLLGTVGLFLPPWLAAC
Chain of α4β2* nAChRs (P12390 25-500): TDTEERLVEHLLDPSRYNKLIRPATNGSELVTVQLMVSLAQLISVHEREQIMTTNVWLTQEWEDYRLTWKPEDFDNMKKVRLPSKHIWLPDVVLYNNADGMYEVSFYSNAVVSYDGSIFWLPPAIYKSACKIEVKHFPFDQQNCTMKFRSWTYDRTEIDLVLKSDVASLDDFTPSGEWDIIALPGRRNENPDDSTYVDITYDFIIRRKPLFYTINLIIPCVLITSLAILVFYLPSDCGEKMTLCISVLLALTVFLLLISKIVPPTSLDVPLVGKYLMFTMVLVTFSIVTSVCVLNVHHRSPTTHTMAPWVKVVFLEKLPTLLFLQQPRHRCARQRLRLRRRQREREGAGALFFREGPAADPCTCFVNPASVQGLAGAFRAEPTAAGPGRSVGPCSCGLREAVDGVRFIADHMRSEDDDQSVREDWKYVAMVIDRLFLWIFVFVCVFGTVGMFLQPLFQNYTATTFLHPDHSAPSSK

| Structure (SMILES) | inhibition in the MLA assay (α7* nAChRs [1]) | affinity for α4β2* nAChR binding site (α4β2* nAChRs) | effect on nicotine self-administration [2] | brain bioavailability [3] | affinity for α7* nAChR binding site (α7* nAChRs [4]) |
| --- | --- | --- | --- | --- | --- |
| C(#Cc1cc(C#CCCC[n+]2cccc(-c3ccccc3)c2)c(C#CCCC[n+]2cccc(-c3ccccc3)c2)cc1C#CCCC[n+]1cccc(-c2ccccc2)c1)CCC[n+]1cccc(-c2ccccc2)c1.[Br-].[Br-].[Br-].[Br-] [Compound 8i] | significant inhibition |  |  |  |  |
| C(#Cc1cc(C#CCCC[n+]2cccc(Cc3ccccc3)c2)c(C#CCCC[n+]2cccc(Cc3ccccc3)c2)cc1C#CCCC[n+]1cccc(Cc2ccccc2)c1)CCC[n+]1cccc(Cc2ccccc2)c1.[Br-].[Br-].[Br-].[Br-] [Compound 8f] | significant inhibition |  |  |  |  |
| Cc1ccc[n+](CCCCCCCCCCCC[n+]2cccc(C)c2)c1.[Br-].[Br-] [Compound 2, N,N’-dodecane-1,12-diyl-bis-3-picolinium dibromide] |  | no affinity | decrease nicotine self-administration | brain bio-available | no affinity |
